The numbers were not newly measured in patent publication US12454515B2, “2-aminoindane compounds for mental disorders or enhancement” (Tactogen Inc, priority 2020, dated 2025), which cites them from elsewhere.

In general, EC50 refers to the concentration giving half of the maximal effect.

The data set has as its system neuritogenesis. The note with it: literature value.

For the molecule `CNC(C)Cc1ccc2c(c1)OCO2` (centres unmarked) [MDMA], the EC50 (Ly et al. Cell reports 23 (2018) Figure S3, read-out: EC50 for promoting neuritogenesis) was 7.41 nM. Also, for the setting “relative to ketamine, Ly et al. 2018”, the “Emax for promoting neuritogenesis” value is reported as “approximately twice that of ketamine”.
